Broadly, the ED50 is the dose at which the effect has come halfway, by size or by number of responders. The IC50 is the concentration that gives 50% inhibition. A high value points to weaker potency in that assay. As a reminder, the TD50 is the dose at which the toxic effect under study appears in half of the subjects.

This note sets out measurements from ChEMBL document CHEMBL3774365, “Design, synthesis, pharmacological evaluation, and docking study of new acridone-based 1,2,4-oxadiazoles as potential anticonvulsant agents” (Eur J Med Chem, 2016).

Structures are written as SMILES. Active and inactive are the calls of the source. The calls are words filed in the database; no cut-off is given here.

The subject of data set [1] is Mus musculus. As to the kind of experiment: Anticonvulsant activity against pentylenetetrazole-induced seizures in ip dosed mouse incubated for 30 mins prior to pentylenetetrazole challenge measured after 30 mins. The format is functional.
Data set [2] deals with Mus musculus. As to the kind of experiment: Anticonvulsant activity against maximal electroshock-induced seizures in ip dosed mouse assessed as protection against hind limb tonic extension incubated for 30 mins prior to 60 Hz maximal electroshock challenge measured for 30 s. Format: functional. The conditions noted are these: Hindlimb.
A short description of data set [3]: Protective index, ratio of TD50 for ip dosed mouse neurotoxicity to ED50 for protection against 60 Hz electroshock-induced seizure in ip dosed mouse. The format is toxicity, organism-based. The conditions noted are these: in vivo, read-out: Ratio TD50/ED50.
The subject of data set [4] is Mus musculus. Kind of data set: Potency index, ratio of phenobarbital ED50 to compound ED50 for protection against maximal electroshock-induced seizures in ip dosed mouse. The format is functional. In general terms: The maximal electroshock test induces tonic seizures with an electrical stimulus.
A further data set deals with T47D. Kind of data set: Cytotoxicity against human T47D cells after 48 hrs by MTT assay. The format is cell-based. (In general: Formazan colour is commonly taken as a measure of viable cells.)
The nature of data set [5]: Protective index, ratio of TD50 for ip dosed mouse neurotoxicity to ED50 for protection against PTZ-induced seizure in ip dosed mouse. The format is toxicity, organism-based. The conditions noted are these: in vivo, read-out: Ratio TD50/ED50.
The test system of the next data set is MCF7. Kind of data set: Cytotoxicity against human MCF7 cells after 48 hrs by MTT assay. The conditions noted are these: MCF7, 48 h. The format is cell-based.
Another data set has as its system MDA-MB-231. As to the kind of experiment: Cytotoxicity against human MDA-MB-231 cells after 48 hrs by MTT assay. Conditions: MDA-MB-231, 48 h. Format: cell-based.
Data set [6] is described as follows: Neurotoxicity in ip dosed mouse assessed as minimal motor impairment measured for 1 min by rotarod test. The format is toxicity, organism-based. Conditions: in vivo.
The subject of data set [7] is Mus musculus. As to the kind of experiment: Anticonvulsant activity against pentylenetetrazole-induced seizures in mouse at 1 to 10 mg/kg, ip incubated for 30 mins prior to PTZ challenge measured after 30 mins in presence of benzodiazepine receptor antagonist flumazenil. The format is functional, organism-based.

On to `Cc1ccc(-c2noc(Cn3c4ccccc4c(=O)c4ccccc43)n2)cc1`, for which the ED50 with Mus musculus [1] was 6.37 mg/kg; in the data set on Mus musculus [2], 2.52 mg/kg. The selectivity ratio is 214 in data set [3] and 84.5 in data set [5]. Further, the “Ratio ED50” value in the data set with Mus musculus [4] is 7. In addition, the half-maximal inhibitory concentration (IC50) in the data set on T47D, with MCF7 and in the data set with MDA-MB-231 was over 50 µM throughout. Besides, the TD50 at 1 min in [6] stood at 538 mg/kg.

In the case of `COc1cc([C@@H]2c3cc4c(cc3[C@@H](O[C@@H]3O[C@@H]5CO[C@@H](C)O[C@H]5[C@H](O)[C@H]3O)[C@H]3COC(=O)[C@H]23)OCO4)cc(OC)c1O` [ETOPOSIDE], the IC50 with T47D was determined as 11.8 µM; in the data set with MDA-MB-231, 15.7 µM.

Take `Cc1ccc(-c2noc(Cn3c4ccccc4c(=O)c4cc(Cl)ccc43)n2)cc1`: the ED50 with Mus musculus [1] is 6.25 mg/kg; in the data set with Mus musculus [2], 2.24 mg/kg. Moreover, the selectivity ratio came out at 216 in data set [3] and 77.3 in [5]. Besides, the “Ratio ED50” value with Mus musculus [4] worked out at 7. For the same compound, the IC50 with T47D, in the data set on MCF7 and in the data set with MDA-MB-231 was over 50 µM each time. Further, the TD50 at 1 min in [6] is 483 mg/kg.

On to `COc1ccc2c(c1)c(=O)c1ccccc1n2Cc1nc(-c2ccc(Cl)cc2)no1`, for which the ED50 stood at 5.22 mg/kg in the data set on Mus musculus [1] and 3.68 mg/kg in the data set with Mus musculus [2]. The selectivity ratio in [3] amounted to 150; in data set [5], 106. Further, the IC50 in the data set with T47D, with MCF7 and in the data set on MDA-MB-231 was over 50 µM each time. Also, the TD50 at 1 min in [6] was 553 mg/kg.

Consider `Cc1ccc(-c2noc(Cn3c4ccccc4c(=O)c4cc(Br)ccc43)n2)cc1`, for which the ED50 was over 50 mg/kg with Mus musculus [1] and 5.12 mg/kg in the data set with Mus musculus [2]. For the same compound, the figures for the selectivity ratio in data set [3] and in data set [5] were 116 and under 11.9, respectively. Also, the IC50 in the data set on T47D, in the data set with MCF7 and with MDA-MB-231 was over 50 µM throughout. Further, the TD50 at 1 min in data set [6] is 594 mg/kg.

`CCC1(c2ccccc2)C(=O)NC(=O)NC1=O` [PHENOBARBITAL]: the ED50 in the data set with Mus musculus [1] was found to be 12.4 mg/kg; in the data set on Mus musculus [2] it was 20.6 mg/kg. In addition, the selectivity ratio was determined as 3.3 in data set [3] and 5.5 in data set [5]. In addition, the TD50 at 1 min in [6] came out at 68.9 mg/kg.

As for `O=c1c2ccccc2n(Cc2nc(-c3ccc(Cl)cc3)no2)c2ccccc12`, the ED50 amounted to 5.78 mg/kg with Mus musculus [1] and 3.57 mg/kg in the data set on Mus musculus [2]. The selectivity ratio was found to be 148 in data set [3] and 91.3 in data set [5]. Also, the IC50 in the data set on T47D, with MCF7 and with MDA-MB-231 was over 50 µM throughout. Also, the TD50 at 1 min in data set [6] came to 528 mg/kg.

Regarding `COc1ccc2c(c1)c(=O)c1ccccc1n2Cc1nc(-c2ccc(C)cc2)no1`, the ED50 in the data set with Mus musculus [1] came out at 6.32 mg/kg; in the data set on Mus musculus [2], 3.25 mg/kg. Further, the selectivity ratio in data set [3] was determined as 160; in [5], 82.4. The 50% inhibitory concentration (IC50) in the data set with T47D, in the data set with MCF7 and in the data set on MDA-MB-231 was over 50 µM each time. Besides, the TD50 at 1 min in data set [6] came to 522 mg/kg.

Consider `CN1C(=O)CN=C(c2ccccc2)c2cc(Cl)ccc21` [DIAZEPAM], for which the results for the ED50 in the data set with Mus musculus [1] and in the data set with Mus musculus [2] were 0.68 mg/kg and 0.98 mg/kg, respectively.

Turning to `COc1ccc(-c2noc(Cn3c4ccccc4c(=O)c4cc(Br)ccc43)n2)cc1`, the ED50 in the data set with Mus musculus [1] amounted to 6.21 mg/kg; in the data set with Mus musculus [2] it was 8.71 mg/kg. Moreover, the values for the selectivity ratio in data set [3] and in data set [5] were 54.1 and 75.8, respectively. The IC50 in the data set on T47D, in the data set with MCF7 and in the data set with MDA-MB-231 was over 50 µM in each case. For the same compound, the TD50 at 1 min in data set [6] was determined as 471 mg/kg.

As to `COc1ccc(-c2noc(Cn3c4ccccc4c(=O)c4cc(Cl)ccc43)n2)cc1`, the values for the ED50 in the data set on Mus musculus [1] and in the data set on Mus musculus [2] were 2.08 mg/kg and 3.71 mg/kg, respectively. In the data set on Mus musculus [7], the outcome was inactive. For the same compound, the figures for the selectivity ratio in data set [3] and in [5] were 118 and 211, respectively. Besides, the IC50 with T47D, in the data set on MCF7 and in the data set on MDA-MB-231 was over 50 µM throughout. For the same compound, the TD50 at 1 min in data set [6] was 438 mg/kg.

`O=c1c2ccccc2n(Cc2nc(-c3ccc(Cl)cc3)no2)c2ccc(Br)cc12`: the ED50 in the data set on Mus musculus [1] stood at 7.57 mg/kg; in the data set with Mus musculus [2], 2.87 mg/kg. Besides, the selectivity ratio in data set [3] was found to be 178; in [5] it was 67.6. In the data set with Mus musculus [4], the “Ratio ED50” value was found to be 7. The concentration for half-maximal inhibition (IC50) in the data set with T47D, with MCF7 and in the data set on MDA-MB-231 was over 50 µM throughout. In addition, the TD50 at 1 min in data set [6] came to 512 mg/kg.

For `Cc1ccc(-c2noc(Cn3c4ccccc4c(=O)c4cc(C)ccc43)n2)cc1`, the ED50 in the data set on Mus musculus [1] was over 50 mg/kg; in the data set with Mus musculus [2], 2.77 mg/kg. Besides, the figures for the selectivity ratio in data set [3] and in data set [5] were 196 and under 10.8, respectively. Moreover, the “Ratio ED50” value with Mus musculus [4] worked out at 7. The IC50 in the data set with T47D, with MCF7 and in the data set on MDA-MB-231 was over 50 µM in each case. Moreover, in data set [6], the TD50 at 1 min is 542 mg/kg.

For the compound `O=c1c2ccccc2n(Cc2nc(-c3ccc(Cl)cc3)no2)c2ccc(Cl)cc12`, the values for the ED50 in the data set on Mus musculus [1] and with Mus musculus [2] were 4.16 mg/kg and 2.64 mg/kg, respectively. The selectivity ratio in data set [3] was found to be 172; in [5] it was 109. Also, the “Ratio ED50” value with Mus musculus [4] amounted to 7. Besides, the IC50 in the data set with T47D, with MCF7 and in the data set with MDA-MB-231 was over 50 µM throughout. Besides, in [6], the TD50 at 1 min amounted to 454 mg/kg.

`COc1ccc(-c2noc(Cn3c4ccccc4c(=O)c4cc(OC)ccc43)n2)cc1`: the ED50 with Mus musculus [1] turned out to be 2.12 mg/kg; in the data set with Mus musculus [2], 2.42 mg/kg. Also, the selectivity ratio came to 191 in data set [3] and 217 in data set [5]. Moreover, the “Ratio ED50” value in the data set with Mus musculus [4] came out at 7. In addition, the IC50 in the data set on T47D, with MCF7 and in the data set with MDA-MB-231 was over 50 µM each time. In addition, in data set [6], the TD50 at 1 min amounted to 462 mg/kg.

In the case of `CCc1ccc2c(c1)c(=O)c1ccccc1n2Cc1nc(-c2ccc(C)cc2)no1`, the ED50 with Mus musculus [1] amounted to 18.9 mg/kg; in the data set on Mus musculus [2] it was 8.31 mg/kg. In addition, the selectivity ratio came out at 59.6 in data set [3] and 26.1 in [5]. For the same compound, the IC50 in the data set with T47D, with MCF7 and with MDA-MB-231 was over 50 µM throughout. For the same compound, the TD50 at 1 min in [6] was determined as 496 mg/kg.

As to `Cc1ccc2c(c1)c(=O)c1ccccc1n2Cc1nc(-c2ccc(Cl)cc2)no1`, the ED50 with Mus musculus [1] stood at 15.2 mg/kg; in the data set with Mus musculus [2] it was 6.53 mg/kg. In addition, the selectivity ratio in [3] was found to be 72.7; in data set [5] it was 31.3. Further, the IC50 in the data set with T47D, with MCF7 and in the data set with MDA-MB-231 was over 50 µM each time. Moreover, the TD50 at 1 min in data set [6] is 475 mg/kg.
